According to PMC6199744, “Development of Chemical Proteomics for the Folateome and Analysis of the Kinetoplastid Folateome” (ACS Infectious Diseases, 2018):
Where two headings read alike, the source gives them in different places.

What was measured:
Format in all cases: binding
[1] = target: T1, HeLa cell extract proteins (Homo sapiens, UniProt P04279)
T1 construct: endogenous in cells; host or cells: HeLa cell extract
T1 sequence (P04279 24-462): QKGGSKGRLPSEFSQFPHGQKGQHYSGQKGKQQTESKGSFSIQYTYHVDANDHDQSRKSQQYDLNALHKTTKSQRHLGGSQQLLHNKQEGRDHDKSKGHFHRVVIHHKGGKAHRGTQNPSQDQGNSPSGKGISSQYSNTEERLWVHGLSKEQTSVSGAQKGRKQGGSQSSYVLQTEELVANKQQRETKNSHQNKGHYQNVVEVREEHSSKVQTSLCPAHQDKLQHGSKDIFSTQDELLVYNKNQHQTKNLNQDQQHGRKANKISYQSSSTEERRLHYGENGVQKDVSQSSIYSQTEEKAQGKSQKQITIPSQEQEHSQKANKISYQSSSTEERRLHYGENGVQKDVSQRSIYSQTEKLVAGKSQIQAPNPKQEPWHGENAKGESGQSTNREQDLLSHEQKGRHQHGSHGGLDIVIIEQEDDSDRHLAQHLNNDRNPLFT

[2] = target: T2, HeLa cell extract proteins (Homo sapiens, UniProt P13804)
T2 construct: endogenous in cells; host or cells: HeLa cell extract
T2 sequence (P13804 20-333): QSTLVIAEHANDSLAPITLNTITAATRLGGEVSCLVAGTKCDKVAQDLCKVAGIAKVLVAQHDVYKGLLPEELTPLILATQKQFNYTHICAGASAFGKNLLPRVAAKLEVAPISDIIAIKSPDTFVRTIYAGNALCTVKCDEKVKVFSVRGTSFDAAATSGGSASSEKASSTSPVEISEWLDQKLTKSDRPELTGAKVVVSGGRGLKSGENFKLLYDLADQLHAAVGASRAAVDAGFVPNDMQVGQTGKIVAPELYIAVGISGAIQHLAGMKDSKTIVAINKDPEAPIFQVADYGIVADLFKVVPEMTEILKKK

[3] = target: T3, HeLa cell extract proteins (Homo sapiens, UniProt P19105)
T3 construct: endogenous in cells; host or cells: HeLa cell extract
T3 sequence (P19105 1-171): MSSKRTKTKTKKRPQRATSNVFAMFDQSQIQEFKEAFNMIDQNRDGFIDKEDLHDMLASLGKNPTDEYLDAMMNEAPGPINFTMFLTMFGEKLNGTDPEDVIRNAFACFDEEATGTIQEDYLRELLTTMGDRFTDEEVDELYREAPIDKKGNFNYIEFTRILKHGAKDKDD

[4] = target: T4, HeLa cell extract proteins (Homo sapiens, UniProt Q6L8Q7)
T4 construct: endogenous in cells; host or cells: HeLa cell extract
T4 sequence (Q6L8Q7 43-609): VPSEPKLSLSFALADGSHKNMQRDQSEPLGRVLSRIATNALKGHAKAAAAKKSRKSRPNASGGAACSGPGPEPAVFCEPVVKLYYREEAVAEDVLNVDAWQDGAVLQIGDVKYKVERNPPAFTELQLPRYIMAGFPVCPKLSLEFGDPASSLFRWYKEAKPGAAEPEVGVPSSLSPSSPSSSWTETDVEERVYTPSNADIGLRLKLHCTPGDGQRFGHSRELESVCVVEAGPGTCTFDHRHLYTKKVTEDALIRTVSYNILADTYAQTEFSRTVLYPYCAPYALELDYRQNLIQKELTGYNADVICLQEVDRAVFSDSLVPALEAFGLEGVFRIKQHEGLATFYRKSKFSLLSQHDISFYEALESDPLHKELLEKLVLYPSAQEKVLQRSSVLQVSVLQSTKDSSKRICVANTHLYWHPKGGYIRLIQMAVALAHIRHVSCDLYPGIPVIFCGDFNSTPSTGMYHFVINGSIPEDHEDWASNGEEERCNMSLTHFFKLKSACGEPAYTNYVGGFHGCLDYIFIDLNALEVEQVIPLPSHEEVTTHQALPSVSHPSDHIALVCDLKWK

[5] = target: T5, HeLa cell extract proteins (Homo sapiens, UniProt Q96JI7)
T5 construct: endogenous in cells; host or cells: HeLa cell extract
T5 sequence (Q96JI7 whole entry): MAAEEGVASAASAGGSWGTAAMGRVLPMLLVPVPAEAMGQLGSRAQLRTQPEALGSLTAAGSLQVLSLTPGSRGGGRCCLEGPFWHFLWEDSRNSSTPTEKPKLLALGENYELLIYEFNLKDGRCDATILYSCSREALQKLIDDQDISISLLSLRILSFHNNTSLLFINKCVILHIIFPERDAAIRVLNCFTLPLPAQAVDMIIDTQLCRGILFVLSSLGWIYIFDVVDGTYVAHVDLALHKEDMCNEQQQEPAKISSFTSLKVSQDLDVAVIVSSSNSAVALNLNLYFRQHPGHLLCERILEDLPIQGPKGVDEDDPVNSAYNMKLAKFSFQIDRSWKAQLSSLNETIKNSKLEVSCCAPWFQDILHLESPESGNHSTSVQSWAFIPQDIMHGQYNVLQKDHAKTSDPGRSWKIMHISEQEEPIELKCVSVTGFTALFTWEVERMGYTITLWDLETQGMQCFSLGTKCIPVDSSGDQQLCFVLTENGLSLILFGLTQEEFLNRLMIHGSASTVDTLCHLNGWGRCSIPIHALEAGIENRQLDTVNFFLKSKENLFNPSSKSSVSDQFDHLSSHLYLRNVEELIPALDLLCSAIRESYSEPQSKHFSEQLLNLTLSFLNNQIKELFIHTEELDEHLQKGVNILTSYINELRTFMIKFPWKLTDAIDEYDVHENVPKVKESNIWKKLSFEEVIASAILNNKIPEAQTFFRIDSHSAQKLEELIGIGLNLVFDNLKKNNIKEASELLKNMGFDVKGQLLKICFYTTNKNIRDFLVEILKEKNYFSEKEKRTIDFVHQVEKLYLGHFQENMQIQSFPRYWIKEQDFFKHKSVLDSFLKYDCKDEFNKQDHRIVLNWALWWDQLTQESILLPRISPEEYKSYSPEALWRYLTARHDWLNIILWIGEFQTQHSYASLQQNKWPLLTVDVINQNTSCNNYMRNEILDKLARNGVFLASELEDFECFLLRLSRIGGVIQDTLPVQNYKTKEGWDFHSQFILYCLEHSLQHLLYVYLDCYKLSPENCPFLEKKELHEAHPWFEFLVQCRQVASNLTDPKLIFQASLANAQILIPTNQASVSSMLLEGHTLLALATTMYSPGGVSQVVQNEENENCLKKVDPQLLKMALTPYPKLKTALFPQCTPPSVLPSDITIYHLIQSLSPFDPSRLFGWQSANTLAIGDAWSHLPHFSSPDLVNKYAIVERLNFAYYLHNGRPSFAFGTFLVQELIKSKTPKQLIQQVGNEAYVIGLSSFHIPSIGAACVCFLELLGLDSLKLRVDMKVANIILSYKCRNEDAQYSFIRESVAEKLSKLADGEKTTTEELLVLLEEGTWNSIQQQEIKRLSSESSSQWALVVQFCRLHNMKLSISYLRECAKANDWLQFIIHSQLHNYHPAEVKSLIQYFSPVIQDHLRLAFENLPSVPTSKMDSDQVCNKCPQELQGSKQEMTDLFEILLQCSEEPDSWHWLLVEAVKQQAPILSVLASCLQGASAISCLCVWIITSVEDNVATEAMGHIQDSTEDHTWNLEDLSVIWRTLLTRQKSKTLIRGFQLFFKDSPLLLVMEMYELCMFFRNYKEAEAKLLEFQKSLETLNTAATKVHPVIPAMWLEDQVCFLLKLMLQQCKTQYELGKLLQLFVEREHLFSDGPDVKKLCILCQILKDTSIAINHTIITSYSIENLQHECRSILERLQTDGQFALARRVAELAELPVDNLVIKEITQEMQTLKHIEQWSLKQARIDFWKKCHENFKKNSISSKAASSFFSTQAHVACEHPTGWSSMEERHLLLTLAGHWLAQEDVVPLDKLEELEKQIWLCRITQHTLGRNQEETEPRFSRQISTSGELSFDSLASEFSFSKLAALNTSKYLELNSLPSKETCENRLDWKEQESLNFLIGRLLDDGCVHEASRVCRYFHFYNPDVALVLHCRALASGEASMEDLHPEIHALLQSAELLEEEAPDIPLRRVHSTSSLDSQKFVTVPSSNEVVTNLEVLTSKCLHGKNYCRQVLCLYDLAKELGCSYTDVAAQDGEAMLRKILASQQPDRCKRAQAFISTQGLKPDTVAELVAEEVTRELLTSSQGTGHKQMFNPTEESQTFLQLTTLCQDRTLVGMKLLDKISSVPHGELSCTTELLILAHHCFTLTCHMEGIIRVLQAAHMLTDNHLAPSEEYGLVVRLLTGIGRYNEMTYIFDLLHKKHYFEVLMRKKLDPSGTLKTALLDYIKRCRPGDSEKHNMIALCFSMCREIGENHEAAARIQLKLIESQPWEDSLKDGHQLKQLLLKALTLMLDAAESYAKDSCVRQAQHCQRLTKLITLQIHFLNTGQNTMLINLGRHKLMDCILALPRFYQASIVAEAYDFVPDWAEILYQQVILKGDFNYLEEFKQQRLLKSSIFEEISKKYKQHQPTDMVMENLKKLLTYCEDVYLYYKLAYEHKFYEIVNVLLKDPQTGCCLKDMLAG

[6] = target: T6, HeLa cell extract proteins (Homo sapiens, UniProt Q9BWD1)
T6 construct: endogenous in cells; host or cells: HeLa cell extract
T6 sequence (Q9BWD1 whole entry): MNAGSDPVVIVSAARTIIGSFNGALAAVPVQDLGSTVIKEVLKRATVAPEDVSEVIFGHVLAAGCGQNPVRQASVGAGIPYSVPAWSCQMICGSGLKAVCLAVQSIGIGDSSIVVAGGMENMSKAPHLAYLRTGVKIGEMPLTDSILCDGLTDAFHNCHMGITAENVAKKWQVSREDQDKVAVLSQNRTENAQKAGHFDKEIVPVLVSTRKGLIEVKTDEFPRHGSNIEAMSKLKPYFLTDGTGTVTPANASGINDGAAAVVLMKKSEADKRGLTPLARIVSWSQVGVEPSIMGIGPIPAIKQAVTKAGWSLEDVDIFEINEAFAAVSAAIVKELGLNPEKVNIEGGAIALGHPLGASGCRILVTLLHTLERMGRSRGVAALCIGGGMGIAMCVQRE

[7] = target: T7, HeLa cell extract proteins (Homo sapiens, UniProt O75600); settings: protein GCAT; HeLa
T7 construct: endogenous in cells; host or cells: HeLa cell extract
T7 sequence (O75600 22-419): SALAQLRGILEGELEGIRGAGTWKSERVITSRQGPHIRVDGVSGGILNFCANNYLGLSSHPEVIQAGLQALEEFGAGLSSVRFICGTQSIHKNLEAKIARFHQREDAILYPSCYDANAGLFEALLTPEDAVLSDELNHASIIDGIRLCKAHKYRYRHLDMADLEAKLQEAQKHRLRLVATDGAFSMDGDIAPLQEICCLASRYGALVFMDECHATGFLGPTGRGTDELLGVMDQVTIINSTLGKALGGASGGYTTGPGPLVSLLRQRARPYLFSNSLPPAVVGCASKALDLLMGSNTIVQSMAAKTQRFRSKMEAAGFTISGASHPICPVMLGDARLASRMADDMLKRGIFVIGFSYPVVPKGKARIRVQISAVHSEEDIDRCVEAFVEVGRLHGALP

[8] = target: T8, HeLa cell extract proteins (Homo sapiens, UniProt P62495); settings: protein ETF1; HeLa
T8 construct: endogenous in cells; host or cells: HeLa cell extract

[9] = target: T9, HeLa cell extract proteins (Homo sapiens, UniProt Q05639); settings: protein EEF1A2; HeLa
T9 construct: endogenous in cells; host or cells: HeLa cell extract
T9 sequence (Q05639 1-463): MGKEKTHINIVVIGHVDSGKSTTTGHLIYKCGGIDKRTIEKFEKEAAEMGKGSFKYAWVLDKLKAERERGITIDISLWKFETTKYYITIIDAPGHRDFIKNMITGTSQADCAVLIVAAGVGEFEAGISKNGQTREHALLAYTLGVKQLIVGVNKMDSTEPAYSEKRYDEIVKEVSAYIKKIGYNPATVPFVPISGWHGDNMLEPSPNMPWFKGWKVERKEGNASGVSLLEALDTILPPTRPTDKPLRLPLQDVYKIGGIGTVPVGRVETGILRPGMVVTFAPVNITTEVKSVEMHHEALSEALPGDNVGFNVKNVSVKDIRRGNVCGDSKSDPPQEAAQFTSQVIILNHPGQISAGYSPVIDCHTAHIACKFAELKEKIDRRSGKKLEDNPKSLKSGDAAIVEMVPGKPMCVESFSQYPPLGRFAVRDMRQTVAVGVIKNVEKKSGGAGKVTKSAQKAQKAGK

[10] = target: T10, HeLa cell extract proteins (Homo sapiens, UniProt Q8TEQ6); settings: protein GEMIN5; HeLa
T10 construct: endogenous in cells; host or cells: HeLa cell extract
T10 sequence (Q8TEQ6 whole entry): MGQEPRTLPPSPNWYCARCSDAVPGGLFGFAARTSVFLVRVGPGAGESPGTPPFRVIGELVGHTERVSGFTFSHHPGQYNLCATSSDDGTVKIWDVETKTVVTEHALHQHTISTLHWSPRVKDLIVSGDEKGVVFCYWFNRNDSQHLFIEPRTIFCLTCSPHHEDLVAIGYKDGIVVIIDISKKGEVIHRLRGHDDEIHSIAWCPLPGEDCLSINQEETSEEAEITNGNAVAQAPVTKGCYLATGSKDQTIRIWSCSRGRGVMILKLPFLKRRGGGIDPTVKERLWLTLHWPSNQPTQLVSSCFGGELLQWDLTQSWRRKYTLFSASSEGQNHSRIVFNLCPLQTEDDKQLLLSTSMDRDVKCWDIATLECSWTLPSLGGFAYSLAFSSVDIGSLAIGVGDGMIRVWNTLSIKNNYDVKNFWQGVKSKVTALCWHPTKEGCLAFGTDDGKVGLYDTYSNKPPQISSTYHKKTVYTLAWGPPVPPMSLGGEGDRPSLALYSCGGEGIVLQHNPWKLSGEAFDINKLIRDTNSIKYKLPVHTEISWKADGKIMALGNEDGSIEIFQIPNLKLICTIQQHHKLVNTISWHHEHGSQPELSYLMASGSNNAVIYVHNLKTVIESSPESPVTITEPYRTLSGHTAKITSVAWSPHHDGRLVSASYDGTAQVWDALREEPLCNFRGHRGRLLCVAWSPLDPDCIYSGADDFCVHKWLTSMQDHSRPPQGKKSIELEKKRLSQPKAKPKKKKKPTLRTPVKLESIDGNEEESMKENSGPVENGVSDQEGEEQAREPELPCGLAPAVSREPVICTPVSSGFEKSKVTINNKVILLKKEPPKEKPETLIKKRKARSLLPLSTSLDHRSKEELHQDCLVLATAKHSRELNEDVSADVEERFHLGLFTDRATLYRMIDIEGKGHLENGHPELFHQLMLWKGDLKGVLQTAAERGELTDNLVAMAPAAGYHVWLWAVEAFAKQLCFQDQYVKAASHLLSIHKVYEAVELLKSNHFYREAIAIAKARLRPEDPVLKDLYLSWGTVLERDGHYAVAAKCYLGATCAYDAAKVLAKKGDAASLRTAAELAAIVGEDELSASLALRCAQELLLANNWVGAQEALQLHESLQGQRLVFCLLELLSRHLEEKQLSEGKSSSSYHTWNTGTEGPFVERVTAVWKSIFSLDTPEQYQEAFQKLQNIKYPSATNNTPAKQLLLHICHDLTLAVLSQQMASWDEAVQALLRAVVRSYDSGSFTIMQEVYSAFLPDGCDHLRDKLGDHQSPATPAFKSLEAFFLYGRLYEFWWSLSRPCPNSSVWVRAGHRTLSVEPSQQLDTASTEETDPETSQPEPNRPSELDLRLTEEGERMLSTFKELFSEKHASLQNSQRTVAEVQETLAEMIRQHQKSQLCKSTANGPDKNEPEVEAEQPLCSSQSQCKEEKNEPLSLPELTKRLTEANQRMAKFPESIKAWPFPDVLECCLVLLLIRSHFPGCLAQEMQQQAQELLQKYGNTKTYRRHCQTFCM

[11] = HeLa, protein MRCL3 (MYOSIN REGULATORY LIGHT CHAIN MRCL3 VARIANT)

Row | SMILES | fold changes relative to vehicle control ([1]; protein SEMG1, HeLa) | fold changes relative to vehicle control ([2]; protein ETFA, HeLa) | fold changes relative to vehicle control [3, 11] | fold changes relative to vehicle control ([4]; HeLa, protein PDE12) | fold changes relative to vehicle control ([5]; protein SPG11, HeLa) | fold changes relative to vehicle control ([6]; HeLa, protein ACAT2) | fold changes relative to vehicle control [7] | fold changes relative to vehicle control [8] | fold changes relative to vehicle control [9] | fold changes relative to vehicle control [10] | further results
1 | Nc1nc2c(c(=O)[nH]1)N(C=O)C(CNc1ccc(C(=O)N[C@@H](CCC(=O)O)C(=O)O)cc1)CN2 (stereo partly drawn) [LEU, leucovorin] | 0.13 | 0.77 | 0.8 | 0.93 | 1.3 | 1.06 | – | – | – | – | –
2 | Nc1nc2[nH]cc(CCc3ccc(C(=O)N[C@@H](CCC(=O)O)C(=O)O)cc3)c2c(=O)[nH]1 [PTX, pemetrexed] | – | – | – | – | – | – | – | – | – | – | fold changes relative to vehicle control [1]: 0.14; fold changes relative to vehicle control [2]: 0.73; fold changes relative to vehicle control [3]: 0.9; fold changes relative to vehicle control [4]: 1.04; fold changes relative to vehicle control [5]: 1.38; fold changes relative to vehicle control [6]: 0.82
3 | CCCCCCOc1ccc(Cc2cnc(N)nc2N)cc1 [compound 1] | – | – | – | – | – | – | 0.95 | 1.08 | 1.09 | 0.99 | –
4 | CCCCCCOc1cccc(Cc2cnc(N)nc2N)c1 [compound 2] | – | – | – | – | – | – | 1.14 | 1.92 | 2.29 | 1.12 | –
5 | Nc1nc2cccc(-c3ccccc3)c2n1Cc1ccc(Cl)c(Cl)c1 [compound 3] | – | – | – | – | – | – | 1.03 | 1.24 | 0.82 | 1.61 | –
6 | NCCOCCOCC(=O)Nc1nc2ncc(CNc3ccc(C(=O)NC(CCC(=O)O)C(=O)O)cc3)nc2c(=O)[nH]1 (stereo not drawn) [compound 6] | 0.16 | 0.9 | 1.43 | 1.1 | 1.86 | 1.17 | – | – | – | – | –
7 | NCCCNc1ccc(C(=O)NC(CCC(=O)O)C(=O)O)cc1 (stereo not drawn) [compound 7] | 0.09 | 0.87 | 0.93 | 1.34 | 1.54 | 1.12 | – | – | – | – | –
